Laboratory results as given in PMC12132378 (bioRxiv, 2025).

Biological target: T1, DTX2 (Homo sapiens, UniProt Q86UW9)
T1 sequence (Q86UW9 1-622): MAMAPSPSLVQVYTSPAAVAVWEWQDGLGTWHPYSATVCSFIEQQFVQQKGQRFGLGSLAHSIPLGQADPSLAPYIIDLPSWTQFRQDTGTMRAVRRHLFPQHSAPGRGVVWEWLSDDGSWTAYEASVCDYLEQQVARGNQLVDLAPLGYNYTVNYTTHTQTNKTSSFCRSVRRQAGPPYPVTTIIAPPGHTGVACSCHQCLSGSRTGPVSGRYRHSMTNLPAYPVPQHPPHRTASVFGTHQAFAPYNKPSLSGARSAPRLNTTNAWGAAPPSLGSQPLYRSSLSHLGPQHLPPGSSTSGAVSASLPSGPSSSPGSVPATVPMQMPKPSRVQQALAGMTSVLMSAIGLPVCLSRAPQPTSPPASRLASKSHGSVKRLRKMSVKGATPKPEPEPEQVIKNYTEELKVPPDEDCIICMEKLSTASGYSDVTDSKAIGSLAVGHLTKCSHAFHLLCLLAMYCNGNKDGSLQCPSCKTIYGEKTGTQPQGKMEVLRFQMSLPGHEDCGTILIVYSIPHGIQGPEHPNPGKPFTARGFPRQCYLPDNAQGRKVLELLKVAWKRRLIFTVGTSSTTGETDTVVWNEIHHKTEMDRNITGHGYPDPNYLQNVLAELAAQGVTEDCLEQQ
Assay: ubiquitylation of OP-ADPr, ion exchange and intact mass spectrometry
Assay type: biochemical
Conditions: co-substrate purified E2~Ub conjugate; pH 7.4, 37 °C, 150 mM NaCl

C#CCO[C@H]1O[C@H](COP(=O)(O)OP(=O)(O)OC[C@H]2O[C@@H](n3cnc4c(N)ncnc43)[C@H](O)[C@@H]2O)[C@@H](O)[C@H]1O [compound 8, OP-ADPr]
ubiquitylation of OP-ADPr, ion exchange and intact mass spectrometry: We next coupled Ub to OP-ADPr using DTX2 to generate an ester-linked Ub-OP-ADPr
